# Experimental data taken from patent publication US20260217983A1, “SULFONIUM SALT PHOTOINITIATORS AND METHODS OF LED CURING A COMPOSITION WITH SAID SULFONIUM SALT PHOTOINITIATORS” (ARKEMA FRANCE, priority 2022, published 2026).
# What was measured:
# [1] = Molar extinction coefficient in acetonitrile; type: physicochemical
# Method: (§1) The curing performance of individual products prepared above was assessed using real time FT-IR measurement. The photoinitiators were dissolved in cycloaliphatic epoxy resin UViCure S105 (available from Sartomer) at the indicated wt % loading, applied onto the FT-IR measurement plate and irradiated with the indicated LED light source. The polymerization rate and final reactive group conversion were determined by monitoring the change of the relevant infrared band near 900 cm^−1 corresponding to an epoxide ring during irradiation. The molar extinction coefficients for the photoinitiator products (ε, expressed in M^−1 cm^−1) were determined in acetonitrile at 10^-3 M or 10^-5 M concentration.
# [2] = FTIR-ATR cure test of cationic formulations (epoxide, oxetane conversion, 1100 cm^-1 peak growth); settings: 405 nm, cationic systems
# Method: (§2) Matrixes: In a 1000 mL of metal can, formulation matrix was charged according to the percentage in Table 12. The 1000-1005 g mixture of each matrix sample was prepared and mixed by mechanical mixer for about 1 hour around 60° C. until the solution became clear. Formulations: In a white max 50 jar from FlackTek Inc., photoinitiator and propylene carbonate were loaded at first, mixed by hand with stainless steel spatula, placed in 60° C. oven for about 1 h, mixed again until it became clear. Then, formulation matrix was charged according to the percentage in one of Table 13 to 21. The […]-52.60 g mixture of each sample was prepared and mixed for 3 minutes at 3000 RPM in Speed Mixer from FleackTec Inc. Then, all jars were placed in 60° C. oven for about 2 h, taken out and immediately mixed for another 2 minutes until the solution became clear.
# (§3) A Fourier Transform Infrared (FTIR) with an Attenuated Total Reflection (ATR) setup was used. All polymerization rate measurements were performed using Nicolet iS50 FT-IR Spectrometer from Thermo Scientific, equipped with a standard DLaTGS detector. A lamp holder for the ART platform of FTIR unit can be customized and printed from Arkema N3xtDimention® engineered resin N3D-TOUGH784 in order to ensure precisely fit of a 365 nm lamp Accucure ULM-2-365 or a 405 nm lamp Accucure ULM-2-405 from Digital Light Labs. On the bottom of this lamp holder, a dry air channel is built in to allow air uniformly blowing over sample surface, the gas flow rate can be controlled over a rotameter. The LED light was manually triggered by Ultraviolet illumination & Measurement System. LED light exposure can be programed by AccuCure software. For measurement, 25 μL of liquid sample was placed in the center of an ATR crystal. 3 mil of thin film was prepared by a customized coating applicator (3 mil WFM, G1046 from BYK). The LED lamp with holder was place on the top of ART platform. Then FTIR scan was initiated to collect liquid IR spectrum at first. Each IR spectrum of a specific exposure time at 10 mW/cm^2 of LED light were collected. Measurements of acrylate conversion were taken at the peak height under the reference peak around 1727 cm^−1; the acrylate peak of SR833S at approximately 1407 cm^−1, the epoxide peak of UviCure S105 at approximately 790 cm^−1, and the oxetane peak of UViCure S130 at approximately 970 cm^−1 were also measured. Since the ring opening of both epoxide and oxetane generated C—O—C bond, the growth of C—O—C IR peak height at ~1100 cm^−1 was monitored as well. The resulting of peak 1100 cm^−1 growth rate could be calculated to assess total cationic cure speed. Peak heights were determined using the same baseline where a baseline is chosen to be the two lowest points between 600 cm^−1 and 1800 cm^−1. The peak height under the peak and above the baseline was then determined. The integration limits for liquid and the cured sample are not identical but are similar, especially for the reference peak.
# (§4) The ratios of the acrylate peak height, epoxide peak height, ring opening peak height from both epoxide and oxetane to the reference peak height were determined for both the liquid and the cured samples. Degree of cure or conversion or peak growth rate, expressed as percentage reacted acrylate or epoxide or ring opening of both epoxide and oxetane, was calculated from the equation below: […]
# (§5) Where Rliq is the peak height ratio of the liquid sample and Rc is the peak height ratio of the LED cured sample. The resulting acrylate and epoxide conversions or C—O—C growth rates were collected and listed in Tables 13 to 21, plotted in FIG. 1 to 8 and FIG. 10.
# [3] = Solubility in propylene carbonate at ambient temperature; type: physicochemical; settings: 20-25° C.
# Method: Solubility of selected sulfonium salts in propylene carbonate at ambient temperature (20-25° C.) was determined.
# [4] = UV Vis spectra measurement; type: physicochemical; settings: order 5>1>2 (comp.) ~4 (comp.); 10 ppm in acetonitrile
# Source text: UV-Vis spectrum of each sample was taken with a Shimadzu UV1800 spectrophotometer using a 1.0 cm path of cuvette quartz cell in accordance with ASTM E169-04, and scanning the spectrum over the wavelength range of 450 to 200 nm.
# [5] = Real time FT-IR curing performance in UViCure S105 at 365 and 385 nm; settings: for Polymerization rate Rp/[M0]*100 / Final conversion: UViCure S105, 20 μm thickness, under air; for Final conversion: epoxide band; for cure speed compared with photoinitiators known from prior art such as Omnicat BL 550: LED lamp conditions, Example 2
# Method: as §1
# [6] = Belt curing performance (thumb-twist depth cure) in UViCure S105E resin; settings: 24 μm film, under air, PI 2 wt %
# Method: The photoinitiators were dissolved either in neat UViCure S105E resin or a hybrid acrylate/epoxy resin (prepared by mixing 60 wt parts UViCure S105E, 15 wt parts UViCure S130 and 25 wt parts SR492; all product are available from Sartomer). Formulations were prepared by combining all materials in the given proportions and then stirring at 30-40° C. until the samples were fully homogeneous; the formulations were then allowed to cool to room temperature. For all experiments, the formulations were cured on Leneta Form 3N-31 gloss finish paper at 6 μm and 24 μm film thickness using a belt-cure instrument; the films were prepared using a K-bar. All films were then cured under an LED lamp at a given belt speed. ‘Depth cure’ for each formulation was assessed using the ‘thumb-twist’ test (where no visible mark is made when a thumb is pressed down firmly onto the coating with a twisting motion), and from the belt speed; the calculated cure speed (in m/min) is given.
# [7] = FTIR-ATR cure test of hybrid formulations (acrylate, epoxide conversion, 1100 cm^-1 peak growth); settings: 405 nm; for Epoxide cure compared with Omnicat 550: 0.5% TPO-L, matched with control SC938/CPTX; for Epoxide cure compared with Omnicat 550 / acrylate cure with or without radical photoinitiator: high or low epoxide hybrid systems; for epoxide cure and total cationic cure compared with Omnicat 550 and SC992: in presence or absence of radical photoinitiator
# Method: as §2, §3, §4, §5
# [8] = Thermal stability by DSC in TMPTA/UViCure S105E (1:1) hybrid resin; type: physicochemical; settings: DSC at 10° C./min, loading 1 wt %
# Method: Formulations comprising the photoinitiators and neat UViCure S105E resin and/or TMPTA resin were prepared as described at example 2.
# [9] = LED @365 nm (120 W/cm^2), PI loading 1 wt % (Omnicat BL 550 4 wt %; Speedcure 938/CPTX 1/0.5 wt %)
# [10] = LED 365 nm, 100% intensity (=70.1 mJ/cm^2), belt speed 40 m/min
# [11] = LED 395 nm, 40 m/min, 100% intensity (=164.5 mJ/cm^2)
Structure (SMILES),ε at 365 nm [1] [M⁻¹ cm⁻¹],ε at 385 nm [1] [M⁻¹ cm⁻¹],cationic cure compared with 2 (comp.) or 4 (comp.) [2],"epoxide, oxetane and total cationic cure compared with Omnicat550 and SC992 [2]",Solubility in propylene carbonate [3] [wt %],UV absorption at 405 nm [4],"Polymerization rate Rp/[M0]*100 [5, 9] [s⁻¹]",Final conversion ([5]; LED @365 nm (120 W/cm^2)) [%],Polymerization rate Rp/[M0]*100 ([5]; LED @385 nm (160 W/cm^2)) [s⁻¹],Final conversion ([5]; LED @385 nm (160 W/cm^2)) [%],cure speed compared with photoinitiators known from prior art such as Omnicat BL 550 [5],"Cure speed in UViCure S105E resin [6, 10] [m/min]","Cure speed in UViCure S105E resin [6, 11] [m/min]",Epoxide cure compared with Omnicat 550 [7],acrylate cure with or without radical photoinitiator [7],epoxide cure and total cationic cure compared with Omnicat 550 and SC992 ([7]; hybrid systems),onset temperature of thermal polymerisation [8] [°C],"acrylate cure in presence of BKL or XKm, or without any radical initiator ([7]; hybrid systems, like SC938/CPTX)"
"CCCOc1ccc(Cl)c2c(=O)c3cc(-[s+]4c5ccccc5c(=O)c5c(Cl)ccc(OCCC)c54)ccc3sc12 (stereo not drawn) [Photoinitiator 5, 1-chloro-10-(8-chloro-9-oxo-5-propoxy-9H-thioxanthen-2-yl)-9-oxo-4-propoxy-9H-thioxanthen-10-ium Hexafluorophosphate]",37326,23429,performed slightly better than 2 (comp.) or 4 (comp.),"better epoxide cure, oxetane cure as well as total cationic cure than both Omnicat550 and SC992",42,much higher than Omnicat 550 and SC 992S,6.57,36,5.90,39,higher cure speed,13.3,13.3,better than that from Omnicat 550,high acrylate cure,better epoxide cure and total cationic cure than Omnicat 550 and SC992,120,
"CC(C)c1ccc2sc3ccc(-[s+]4c5ccccc5c(=O)c5cc(C(C)C)ccc54)cc3c(=O)c2c1 (stereo not drawn) [Photoinitiator 1, 9-oxo-10-[9-oxo-7-(propan-2-yl)-9H-thioxanthen-2-yl]-2-(propan-2-yl)-9H-thioxanthen-10-ium hexafluorophosphate]",23380,23514,performed slightly better than 2 (comp.) or 4 (comp.),"better epoxide cure, oxetane cure as well as total cationic cure than both Omnicat550 and SC992",>50,much higher than Omnicat 550 and SC 992S,8.93,35,8.89,36,,12.2,20.0,better than that from Omnicat 550,,,133,
"CCc1cc(CC)c2sc3ccc([S+](c4ccc(C)cc4)c4ccc(C(=O)c5ccccc5)cc4)cc3c(=O)c2c1 (stereo not drawn) [Photoinitiator 4, (4-benzoylphenyl)(5,7-diethyl-9-oxo-9H-thioxanthen-2-yl)(4-methylphenyl)sulfonium Hexafluorophosphate]",13154,13649,,"better epoxide cure, oxetane cure as well as total cationic cure than both Omnicat550 and SC992",>47,much higher than Omnicat 550 and SC 992S,5.74,25,4.80,25,higher cure speed,3.7,5.2,better than that from Omnicat 550,high acrylate cure,better epoxide cure and total cationic cure than Omnicat 550 and SC992,,could cure acrylate very well
"Cc1ccc([S+](c2ccc(C(=O)c3ccccc3)cc2)c2ccc3sc4ccc(C(C)C)cc4c(=O)c3c2)cc1 (stereo not drawn) [Photoinitiator 2, (4-benzoylphenyl)(4-methylphenyl)[9-oxo-7-(propan-2-yl)-9H-thioxanthen-2-yl]sulfonium Hexafluorophosphate]",14201,14921,,"better epoxide cure, oxetane cure as well as total cationic cure than both Omnicat550 and SC992",>48,much higher than Omnicat 550 and SC 992S,4.11,41,5.96,41,higher cure speed,4.6,10.0,,,,117,
